IC50 and inhibition data for 3 compounds are collected here from paper PMC2867072 (Chemical communications (Cambridge, England), 2010).

The target in one assay is MMP-9 (gelatinase-B) (Homo sapiens, UniProt P14780). Kind of assay: fluorescence-based MMP-9 inhibition assay. It counts as biochemical. Particulars: for inhibition at 1000 µM: read-out: percent inhibition of MMP-9.
The target of the next assay is MMP-8 (Homo sapiens, UniProt P22894). Kind of assay: fluorescence-based MMP-8 inhibition assay. It counts as biochemical. Particulars: MMP-8, fluorescence based assay.

Where two headings read alike, the source gives them in different places.

MMP-9 (gelatinase-B), sequence (P14780 94-707, species assumed): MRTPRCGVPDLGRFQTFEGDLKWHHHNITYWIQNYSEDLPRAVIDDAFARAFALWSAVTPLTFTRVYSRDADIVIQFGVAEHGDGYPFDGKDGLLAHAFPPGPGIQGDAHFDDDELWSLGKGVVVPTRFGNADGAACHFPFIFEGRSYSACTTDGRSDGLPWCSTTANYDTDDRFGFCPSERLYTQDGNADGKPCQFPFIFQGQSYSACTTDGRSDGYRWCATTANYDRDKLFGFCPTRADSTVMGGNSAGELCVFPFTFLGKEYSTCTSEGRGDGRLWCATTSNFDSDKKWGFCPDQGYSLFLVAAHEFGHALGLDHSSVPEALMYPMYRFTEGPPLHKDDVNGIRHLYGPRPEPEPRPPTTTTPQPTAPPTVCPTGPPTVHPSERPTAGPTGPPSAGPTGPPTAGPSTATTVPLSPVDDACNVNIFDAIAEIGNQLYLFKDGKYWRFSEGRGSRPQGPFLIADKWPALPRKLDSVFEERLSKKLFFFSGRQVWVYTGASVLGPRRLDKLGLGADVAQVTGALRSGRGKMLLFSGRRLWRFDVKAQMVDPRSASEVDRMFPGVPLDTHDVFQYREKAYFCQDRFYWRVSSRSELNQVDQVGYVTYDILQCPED
MMP-8, sequence (P22894 101-467, species assumed): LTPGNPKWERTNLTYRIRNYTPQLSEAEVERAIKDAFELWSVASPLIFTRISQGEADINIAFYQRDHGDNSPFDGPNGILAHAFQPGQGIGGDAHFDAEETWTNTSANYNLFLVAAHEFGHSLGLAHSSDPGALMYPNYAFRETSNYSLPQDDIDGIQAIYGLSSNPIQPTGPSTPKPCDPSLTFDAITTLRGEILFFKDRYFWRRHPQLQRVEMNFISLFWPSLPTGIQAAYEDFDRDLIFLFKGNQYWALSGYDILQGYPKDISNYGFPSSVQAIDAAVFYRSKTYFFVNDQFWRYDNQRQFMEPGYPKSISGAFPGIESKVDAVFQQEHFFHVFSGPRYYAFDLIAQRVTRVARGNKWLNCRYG

Regarding `Cc1occc(=O)c1O` [Compound 3, 3-hydroxy-2-methyl-4-pyrone], at MMP-9 (gelatinase-B), the half-maximal inhibitory concentration (IC50) (usually the concentration that inhibits the measured activity by half) came to 4030 µM and the inhibition (usually how much of the control response was suppressed) at 1000 µM is around 50%.

Turning to `Cc1occc(=S)c1O` [Compound 5, 3-hydroxy-2-methyl-4-pyrothione], on MMP-9 (gelatinase-B), it took 138 µM to reach half-maximal inhibition (IC50) and the inhibition at 1000 µM was around 50%.

Regarding `O=C(NCc1ccc(-c2ccccc2)cc1)c1cccc(=O)n1O` [Compound 7, 1,2-HOPO-2], the IC50 on MMP-8 stood at 0.075 µM; at MMP-9 (gelatinase-B) (MMP-9, fluorescence based assay) it was 2.7 µM.
